# Test results reported in patent publication US20080114063A1, “Use of 2,5-Dihydroxybenzene Derivatives for the Treatment of Tissue Reactive Diseases” (Action Medicines, priority 2006, published 2008).
# “Also recorded” adds a separate entry of the source.
# Tests used:
# [1] = molecular target: fibroblast growth factor-1 (FGF-1) (Homo sapiens, UniProt P05230); assay: Co-crystallization with FGF-1 (crystal diffraction); assay type: binding; conditions: electron density contoured at 1σ, site close to that of 2,5-dihydroxybenzenesulfonic acid
# Procedure: Based on the crystal diffraction of the FGF-1:2-acetoxy-5-hydroxybenzene sulfonic acid, FGF-1:5-acetoxy-2-hydroxybenzene sulfonic acid and FGF-1:2,5-diacetoxybenzene sulfonic acid complexes, the structures of the complexes were calculated and represented. FIGS. 20, 21 and 22, which show the surface of the dyed protein according to its electrostatic potential (light grey: negative charge; dark grey: positive charge; white: lack of charge), show the manner in which 2-acetoxy-5-hydroxybenzene sulfonic acid, 5-acetoxy-2-hydroxybenzene sulfonic acid and 2,5-diacetoxybenzene sulfonic acid interact, respectively, with FGF-1.
# [2] = tested on: intestinal inflammatory disease (IID) induced by 3% dextran sulfate sodium; assay: Intestinal inflammatory disease induced by dextran sulfate sodium (DSS) in the mouse; assay type: in vivo, mice of strain C57BL/6J-664; conditions: for disease clinical score (0 to 6 scale): two DSS cycles
# Description: The induction of the intestinal inflammatory disease described below is a representative model for the evaluation of therapeutic strategies to treat Crohn's disease and ulcerative colitis. 7-8 week old female mice of strain C57BL/6J-664 were used. The intestinal inflammatory disease (IID) was induced by feeding the mice with 3% dextran sulfate sodium (DSS; MW 40,000) dissolved in drinking water in 2 cycles. Each cycle consisted of 7 days with 3% DSS in the drinking water separated by 7 days with regular water. A daily clinical evaluation of the animals was performed in which the body weight, the consistency of the faeces and the presence of blood in the faeces were determined. Thus, the validated score of the clinical activity of the disease was evaluated with a 0 to 6 scale, considering the following parameters: consistency of the faeces, presence or absence of fecal blood and loss of weight.
# At the end of the first cycle of exposure to DSS, the mice were divided into the following treatment groups: a first group was administered intraperitoneal (i.p) injections of vehicle (0.9% NaCl). Another group received intramuscular injections of Solu-Medrol, a standard IID treatment, at a dose of 10 mg/kg/day. A third group was administered i.p. injections of potassium 2,5-diacetroxybenzene sulfonate (DABS, 100 mg/kg/day). The last group was treated orally with 125 mg/kg day of DABS.
# Leishmania major = assay: Experimental infection with Leishmania major in mouse paw pad (lesion size); assay type: in vivo, Leishmania major in BALB/c female mice
# Description: This model is based in the massive inoculation of Leishmania promatigotes in the mouse paw pad. Under these conditions, the parasite induces a progressive inflammation correlated with the multiplication of parasites at the site of inoculation. BALB/c strain female mice that developed severe and uncontrolled injuries were used (Foote S J, Handman E. Brief Funct Genomic Proteomic, 2005). This model has been used in pharmacology to monitor the therapeutic capacity of new leishmanicide compounds and the preventive capacity of potential vaccines against leishmaniasis ((Nelson K G et al. Antimicrob Agents Chemother. 2006).
# The animals were inoculated with 5×10^6 of L. major promastigotes (strain Hervás) in 50 μL of PBS into the plantar pad of the right back paw. As negative control of the infection, a group of mice inoculated with 50 μL of PBS was used. The sizes of the lesions were measured every 7 days until the animals were sacrificed (week 9) using a Vernier caliper. The thickness of the right back paw (infected) and the left back paw (uninfected) of all the animals was measured at the base of the fifth toe. The progression of the inflammation is represented as the difference in thickness between the infected and the non-infected paws. […]
# [3] = tested on: fibroblast growth factor-1 (FGF-1) induced mitogenesis in Balb/c 3T3 fibroblasts; assay: Inhibition of FGF-1 induced mitogenesis in quiescent Balb/c 3T3 fibroblast cultures; assay type: cell-based; conditions: quiescent cultures of Balb/c 3T3 fibroblasts
# Procedure: The evaluated compounds were used in the form of potassium salt, except in the first case in which calcium salt was used. The experiments were carried out as described in Fernández-Tornero C et al. J Biol Chem, 2003.
# OVA-sensitized mice = assay: Experimentally induced (OVA) asthma in mice: methacholine bronchoconstriction and BAL cell count; assay type: in vivo, Balb/c mice; conditions: for methacholine induced bronchoconstriction (Penh): methacholine 5 and 20 mg/mL
# Procedure: 6-9 week old Balb/c mice were used. The ovoalbumin (OVA)/aluminum complex was obtained after dissolving OVA (500 μg/mL) in PBS, and mixing it with an equal volume of 10% aluminum potassium sulfate at pH 6.5 for 1 hour. After centrifuging the pellet (750×g for 5 minutes) the OVA/aluminum pellet was resuspended in distilled water. On day 0, the mice were intraperitoneally injected with 100 μg of OVA/aluminum. Eight days later, the mice were anesthetized and exposed to 250 μg of OVA. Later, they were administered 125 μg of OVA on days 15, 18 and 21. Each […] received sublingual administration of OVA.
# The following treatments were administered to the animals: (i.p.) vehicle from day 2, potassium 2,5-diacetoxybencene sulfonate (DABS; 100 mg/kg/day, i.p.) from day 2, DABS (100 mg/kg/day, i.p.) from day 8 and Combivent (20 μg/200 μg in aerosol) on days 20, 21 and 22, the latter as a reference treatment.
# In order to evaluate the pulmonary function, the response to methacholine in conscious mice was determined, 24 hours after the last exposure to OVA. The mice were exposed to increasing methacholine concentrations (5 and 20 mg/mL) in the form of aerosol using an ultrasonic nebulizer during 2 minutes. The degree of bronchoconstriction was expressed as the enhanced […] (Penh) which correlates to the mouse air resistance, impedance and pressure within the pleura. The Penh was calculated using the formula Penh=[(Te/Rt−1)×(PEF/PIF)], where Te is expiratory time, Rt is relaxation time, PEF is peak expiratory flow and PIF is peak inspiratory flow×0.67 coefficient.
# After measuring airway hyperreactivity, the mice were sacrificed and bronchoalveolar lavage (BAL) of the right lung was collected. The total number of cells in the BAL fluid was determined.
# rat C6 glioma cells = assay: Proliferation of rat glioma C6 cells (crystal violet); assay type: cell-based; conditions: 500 μM, 48 h, crystal violet absorbance at 595 nm
# Procedure: FIG. 19. […] 5A-2HBS and 2A-5HBS were administered or not (control) after seeding C6 cells in 24 well plates (10^4 per well) until they were fixed 48 hours later. Data are expressed as the mean ±SEM of the percentage of absorbance at 595 nm obtained in control cultures, which is proportional to the number of cells stained with crystal violet. Data were obtained from 3 cultures for each treatment and 6 control cultures.
# The cell line used was the C6 cell line and the experiment was carried out as described in examples 2 and 3. Once adhered, the cells were treated or not (controls) with (5A-2HBS) (500 μM) or (2A-5HBS) (500 μM) and they were allowed to proliferate for 48 h. After this time the glioma cell proliferation was evaluated by means of staining the fixed cells with crystal violet. The number of cells is proportional to the amount of retained dye, which was determined spectrophotometrically by measuring the absorbance at 595 nm once the dye was extracted from the cells.
# fibroblast growth factor-1 (FGF-1), sequence (P05230 whole entry, species assumed): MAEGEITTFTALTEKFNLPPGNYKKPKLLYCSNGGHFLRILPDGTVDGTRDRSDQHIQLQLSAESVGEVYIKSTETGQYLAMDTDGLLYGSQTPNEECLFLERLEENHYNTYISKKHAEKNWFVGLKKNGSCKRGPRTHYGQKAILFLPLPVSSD
compound,measurement,setting,value
CC(=O)Oc1ccc(O)c(S(=O)(=O)O)c1 [5-acetoxy-2-hydroxybenzenesulfonic acid],state of the compound when bound to FGF-1 (co-crystal electron density),[1],conserves the acetoxyl group in position 5 when it binds to the protein
"CC(=O)Oc1ccc(OC(C)=O)c(S(=O)(=O)O)c1 [2,5-diacetoxybenzenesulfonic acid]",state of the compound when bound to FGF-1 (co-crystal electron density),[1],conserves the acetoxyl groups in positions 2 and 5 when it binds to the protein
"C[C@H]1C[C@@H]2[C@H]([C@@H](O)C[C@@]3(C)[C@H]2CC[C@]3(O)C(=O)COC(=O)CCC(=O)O)[C@@]2(C)C=CC(=O)C=C12 [Solu-Medrol, reference compound]",effect on body weight,"[2]; Solu-Medrol 10 mg/kg/day i.m., two 7-day DSS cycles, vs vehicle",significant effect on the body weight
CC(=O)Oc1ccc(O)cc1S(=O)(=O)O [2-acetoxy-5-hydroxybenzenesulfonic acid],state of the compound when bound to FGF-1 (co-crystal electron density),[1],conserves the acetoxyl group in position 2 when it binds to the protein
"CC(=O)Oc1ccc(OC(C)=O)c(S(=O)(=O)[O-])c1.[K+] [DABS, potassium 2,5-diacetoxybenzene sulfonate]",size of the lesion (paw thickness difference),"Leishmania major; 200 mg/kg daily i.p. from day 0 to week 9, effect from the third week post-infection",statistically significant reduction in the size of the lesion
same,size of the lesion (paw thickness difference),"Leishmania major; 200 mg/kg/day i.p. from the third week after inoculation, effect from the eighth week",significantly smaller
same,inhibition of FGF-1 induced mitogenesis,[3],Inhibition of FGF-1 induced mitogenesis
same,disease clinical score (0 to 6 scale),[2]; 100 mg/kg/day i.p.,reduced
same,disease clinical score (0 to 6 scale),[2]; 125 mg/kg/day orally,reduced
same,loss of body weight produced by DSS,"[2]; DABS 100 mg/kg/day i.p. or 125 mg/kg/day p.o., two 7-day DSS cycles, vs vehicle",reduced; also recorded: significant effect on the body weight
same,efficacy compared with standard treatment Solu-Medrol (body weight and clinical score),[2]; DABS i.p. or p.o. vs Solu-Medrol 10 mg/kg/day i.m.,not lower (in some points it is higher)
same,methacholine induced bronchoconstriction (Penh),OVA-sensitized mice; 100 mg/kg/day i.p. from day 2,completely prevented
same,methacholine induced bronchoconstriction (Penh),OVA-sensitized mice; 100 mg/kg/day i.p. from day 8,completely prevented
same,presence of cells in bronchoalveolar lavage (BAL),"OVA-sensitized mice; 100 mg/kg/day i.p., right lung BAL, vs vehicle",significantly reduced
same,increase of the Penh after exposure to methacholine vs saline,"OVA-sensitized mice; mouse, in vivo",do not show a significant increase of the Penh
same,reduction of BAL cells compared with Combivent,"OVA-sensitized mice; mouse, in vivo",even more than the treatment with Combivent
calcium 2-acetoxy-5-hydroxybenzenesulfonate [2A-5HBS],inhibition of FGF-1 induced mitogenesis,[3],Inhibition of FGF-1 induced mitogenesis
"CC(=O)Oc1ccc(O)c(S(=O)(=O)[O-])c1.[K+] [5A-2HBS, potassium 5-acetoxy-2-hydroxybenzene sulfonate]",inhibition of FGF-1 induced mitogenesis,[3],Inhibition of FGF-1 induced mitogenesis
same,rat glioma cell proliferation,rat C6 glioma cells,inhibition of rat glioma cell proliferation
